In patent US12344610B2, “APOL1 inhibitors and methods of use” (Maze Therapeutics, Inc., priority 2022, dated 2025) one finds AC50 data, which are given here for 15 molecules.

The target in the assay is T1, APOL1 G2 (Homo sapiens, UniProt O14791, DEL388-389).
T1 construct: expressed in transfected cells; host or cells: HEK293 T-REx clonal line stably expressing GCaMP6f (HEK T-REx/GCaMP6f/APOL1 G2 K6.3), doxycycline induced
T1 sequence (O14791 with tags, fused parts or gaps DEL388-389): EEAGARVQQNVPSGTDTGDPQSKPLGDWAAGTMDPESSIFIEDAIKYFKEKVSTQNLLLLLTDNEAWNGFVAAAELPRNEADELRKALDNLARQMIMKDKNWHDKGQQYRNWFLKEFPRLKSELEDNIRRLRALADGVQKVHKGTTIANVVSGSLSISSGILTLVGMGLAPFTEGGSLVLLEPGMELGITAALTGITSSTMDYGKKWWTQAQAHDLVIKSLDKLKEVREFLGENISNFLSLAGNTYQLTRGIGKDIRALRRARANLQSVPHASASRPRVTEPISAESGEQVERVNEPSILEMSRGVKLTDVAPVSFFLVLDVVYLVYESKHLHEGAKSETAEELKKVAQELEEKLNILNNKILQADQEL
The assay is described as follows: APOL1-mediated calcium transport (calcium influx) assay, HEK T-REx/GCaMP6f/APOL1 G2 K6.3 cells, FLIPR TETRA. The class given is cell-based. The settings on record: prevention of calcium influx; geometric mean of at least 2 assay runs; † = average of a technical replicate from a single assay run. The procedure, abridged:
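A HEK293 T-REx clone stably expressing GCaMP6f had APOL1 G2 induced with doxycycline (20 ng/mL solution added) for 6 h. Cells were then washed into Ca2+-free Tyrode's buffer (pH 7.4) and preincubated with compounds (duplicate 8-point) for 10 min at room temperature. Ca2+ injection to 5 mM final produced FLIPR GCaMP fluorescence, giving AC50 for influx inhibition (geometric mean, ≥2 runs).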
`CS(=O)(=O)C1(c2ccc(OCCN3CCC4(CC3)C(=O)Nc3ccc(Cl)cc34)cc2C(F)(F)F)COC1` [Compound 165, 5-chloro-1′-{2-[4-(3-methanesulfonyloxetan-3-yl)-3-(trifluoromethyl)phenoxy]ethyl}-1,2-dihydrospiro[indole-3,4′-piperidin]-2-one]: the AC50 is 558 nM.

With `CS(=O)(=O)C1(c2ccc(OCCN3CCC4(CC3)C(=O)Nc3ccc(C#N)cc34)cc2C(F)(F)F)COC1` [Compound 166, 1′-{2-[4-(3-methanesulfonyloxetan-3-yl)-3-(trifluoromethyl)phenoxy]ethyl}-2-oxo-1,2-dihydrospiro[indole-3,4′-piperidine]-5-carbonitrile], the AC50 amounted to 618 nM. As for `O=C1Nc2ccc(Cl)cc2C12CCN(CCOc1ccc3c(c1)CCNS3(=O)=O)CC2` [Compound 167, 6-(2-{5-chloro-2-oxo-1,2-dihydrospiro[indole-3,4′-piperidin]-1′-yl}ethoxy)-3,4-dihydro-2H-1λ^6,2-benzothiazine-1,1-dione], the AC50 was determined as 467 nM. The value for `N#Cc1ccc2c(c1)C1(CCN(CCOc3ccc4c(c3)CCNS4(=O)=O)CC1)C(=O)N2` [Compound 168, 1′-{2-[(1,1-dioxo-3,4-dihydro-2H-1λ^6,2-benzothiazin-6-yl)oxy]ethyl}-2-oxo-1,2-dihydrospiro[indole-3,4′-piperidine]-5-carbonitrile] was 1390 nM; that for `CN1C(=O)Cc2cc(OCCN3CCC4(CC3)C(=O)Nc3ccc(C#N)cc34)cc(F)c21` [Compound 169, 1′-{2-[(7-fluoro-1-methyl-2-oxo-2,3-dihydro-1H-indol-5-yl)oxy]ethyl}-2-oxo-1,2-dihydrospiro[indole-3,4′-piperidine]-5-carbonitrile] was 1210 nM; that for `CC1(Oc2ncc(OCCN3CCC4(CC3)C(=O)Nc3ccc(Cl)cc34)cn2)COC1` [Compound 172, 5-chloro-1′-[2-({2-[(3-methyloxetan-3-yl)oxy]pyrimidin-5-yl}oxy)ethyl]-1,2-dihydrospiro[indole-3,4′-piperidin]-2-one] was 479 nM. With `CCS(=O)(=O)C1(c2ccc(OCCN3CCC4(CC3)C(=O)Nc3ccc(C#N)cc34)cc2)COC1` [Compound 174, 1′-(2-{4-[3-(ethanesulfonyl)oxetan-3-yl]phenoxy}ethyl)-2-oxo-1,2-dihydrospiro[indole-3,4′-piperidine]-5-carbonitrile] the figure was 484 nM; with `CS(=O)(=O)C1(c2ccc(OCCN3CCC4(CC3)C(=O)Nc3ccc(Cl)cc34)cc2)CCC1` [Compound 180, 5-chloro-1′-{2-[4-(1-methanesulfonylcyclobutyl)phenoxy]ethyl}-1,2-dihydrospiro[indole-3,4′-piperidin]-2-one], 756 nM. With `CS(=O)(=O)C1(c2ccc(OCCN3CCC4(CC3)C(=O)Nc3ccc(C#N)cc34)cc2)CCC1` [Compound 181, 1′-{2-[4-(1-methanesulfonylcyclobutyl)phenoxy]ethyl}-2-oxo-1,2-dihydrospiro[indole-3,4′-piperidine]-5-carbonitrile] the figure was 656 nM; with `CS(=O)(=O)C1(c2ccc(OCCN3CCC4(CC3)C(=O)Nc3ccc(Cl)cc34)cc2)CC2(COC2)C1` [Compound 182, 5-chloro-1′-[2-(4-{6-methanesulfonyl-2-oxaspiro[3.3]heptan-6-yl}phenoxy)ethyl]-1,2-dihydrospiro[indole-3,4′-piperidin]-2-one], 574 nM.

For `CS(=O)(=O)C1(c2ccc(OCCN3CCC4(CC3)C(=O)N(CC(F)(F)F)c3ccc(C#N)cc34)cc2)COC1` [Compound 184, 1′-{2-[4-(3-methanesulfonyloxetan-3-yl)phenoxy]ethyl}-2-oxo-1-(2,2,2-trifluoroethyl)-1,2-dihydrospiro[indole-3,4′-piperidine]-5-carbonitrile], the AC50 was 1280 nM. The value for `CS(=O)(=O)C1(c2ccc(OCCN3CCC4(CC3)C(=O)N(CC(F)(F)F)c3ccc(Cl)cc34)cc2)COC1` [Compound 185, 5-chloro-1′-{2-[4-(3-methanesulfonyloxetan-3-yl)phenoxy]ethyl}-1-(2,2,2-trifluoroethyl)-1,2-dihydrospiro[indole-3,4′-piperidin]-2-one] was 993 nM; that for `CS(=O)(=O)C1(c2ccc(OCCN3CCC4(CC3)C(=O)Nc3ccc(Cl)cc34)cc2)CCOCC1` [Compound 188, 5-chloro-1′-{2-[4-(4-methanesulfonyloxan-4-yl)phenoxy]ethyl}-1,2-dihydrospiro[indole-3,4′-piperidin]-2-one] was 513 nM. Turning to `CN1C(=O)C2(CCN(CCOc3cc(F)c(C4(S(C)(=O)=O)COC4)c(F)c3)CC2)c2cc(C#N)ccc21` [Compound 189, 1′-{2-[3,5-difluoro-4-(3-methanesulfonyloxetan-3-yl)phenoxy]ethyl}-1-methyl-2-oxo-1,2-dihydrospiro[indole-3,4′-piperidine]-5-carbonitrile], the concentration at half-maximal activity (AC50) stood at 349 nM. The value for `CC(C)(c1ccc(OCCN2CCC3(CC2)C(=O)Nc2ccc(C#N)cc23)cn1)S(C)(=O)=O` [Compound 191, 1′-(2-{[6-(2-methanesulfonylpropan-2-yl)pyridin-3-yl]oxy}ethyl)-2-oxo-1,2-dihydrospiro[indole-3,4′-piperidine]-5-carbonitrile] was 1170 nM.

By AC50 is commonly meant the midpoint of the concentration-response curve, whichever way the signal moves.
